Source: patent publication US11795460B2, “Compositions and methods for TTR gene editing and treating ATTR amyloidosis” (Intellia Therapeutics, Inc., priority 2017, dated 2023)
Strand notation (5' to 3'): a small letter for the sugar, then the base; units joined by * are phosphorothioate-linked, units joined directly phosphodiester-linked; [ ] holds rarer units or linkages, { } end groups; capitals alone tell only the bases. m = 2'-O-methyl; r = 2'-OH (RNA)

B1: G000510: TTR Cyno specific sgRNA modified sequence, SEQ ID No. 122; guide sequence of CR005370 (nucleic acid)
guide: mA*mC*mU*rUrGrUrCrUrUrCrUrCrUrArUrArCrCrCrArGrUrUrUrUrArGrAmGmCmUmAmGmAmAmAmUmAmGmCrArArGrUrUrArArArArUrArArGrGrCrUrArGrUrCrCrGrUrUrArUrCrAmAmCmUmUmGmAmAmAmAmAmGmUmGmGmCmAmCmCmGmAmGmUmCmGmGmUmGmCmU*mU*mU*mU
B2: G000508: TTR Cyno specific sgRNA modified sequence, SEQ ID No. 120; guide sequence of CR005368 (nucleic acid)
guide: mC*mC*mU*rCrCrUrCrUrGrCrCrUrCrGrCrUrGrGrArCrGrUrUrUrUrArGrAmGmCmUmAmGmAmAmAmUmAmGmCrArArGrUrUrArArArArUrArArGrGrCrUrArGrUrCrCrGrUrUrArUrCrAmAmCmUmUmGmAmAmAmAmAmGmUmGmGmCmAmCmCmGmAmGmUmCmGmGmUmGmCmU*mU*mU*mU
B3: G000507: TTR Cyno specific sgRNA modified sequence, SEQ ID No. 119; guide sequence of CR005367 (nucleic acid)
guide: mC*mC*mA*rGrUrCrCrArGrCrGrArGrGrCrArGrArGrGrGrUrUrUrUrArGrAmGmCmUmAmGmAmAmAmUmAmGmCrArArGrUrUrArArArArUrArArGrGrCrUrArGrUrCrCrGrUrUrArUrCrAmAmCmUmUmGmAmAmAmAmAmGmUmGmGmCmAmCmCmGmAmGmUmCmGmGmUmGmCmU*mU*mU*mU
B4: G000511: TTR Cyno specific sgRNA modified sequence, SEQ ID No. 123; guide sequence of CR005371 (nucleic acid)
guide: mA*mA*mG*rUrGrArCrUrUrCrCrArGrUrArArGrArUrUrGrUrUrUrUrArGrAmGmCmUmAmGmAmAmAmUmAmGmCrArArGrUrUrArArArArUrArArGrGrCrUrArGrUrCrCrGrUrUrArUrCrAmAmCmUmUmGmAmAmAmAmAmGmUmGmGmCmAmCmCmGmAmGmUmCmGmGmUmGmCmU*mU*mU*mU
B5: G000509: TTR Cyno specific sgRNA modified sequence, SEQ ID No. 121; guide sequence of CR005369 (nucleic acid)
guide: mA*mA*mA*rGrUrUrCrUrArGrArUrGrCrCrGrUrCrCrGrGrUrUrUrUrArGrAmGmCmUmAmGmAmAmAmUmAmGmCrArArGrUrUrArArArArUrArArGrGrCrUrArGrUrCrCrGrUrUrArUrCrAmAmCmUmUmGmAmAmAmAmAmGmUmGmGmCmAmCmCmGmAmGmUmCmGmGmUmGmCmU*mU*mU*mU

Key:
TTR [1] = experiment: TTR editing in HepG2 cells transfected with Spy Cas9 mRNA and dgRNAs (Table 6); type: cell-based, human; settings: HepG2 cells co-transfected with Spy Cas9 mRNA (SEQ ID NO:2) and dgRNAs
How it was run: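 Percent editing is the share of sequencing reads at the TTR target locus that carry insertions, deletions or substitutions, measured by Illumina amplicon sequencing aligned to hg38. Samples came from HepG2 cells lipofected first with 100 ng Cas9 mRNA and then with dual-guide RNA (25 nM crRNA/tracer), collected 24–72 h later.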

TTR [2] = experiment: TTR editing in primary human hepatocytes electroporated with Spy Cas9 protein loaded with dgRNAs (Table 7); type: cell-based; settings: dgRNA electroporated with Spy Cas9 protein (RNP)
How it was run: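 Editing efficiency is the fraction of NGS reads carrying insertions, deletions or substitutions at the TTR target, measured on MiSeq amplicons from DNA harvested 24, 48 or 72 h post-delivery. Cas9–dgRNA ribonucleoprotein was nucleofected (P3 buffer, EX-147) into primary human or cyno hepatocytes.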

TTR [3] = experiment: TTR editing in primary human hepatocytes transfected with Spy Cas9 protein (RNP) loaded with dgRNAs (Table 8); type: cell-based; settings: dgRNA transfected with Spy Cas9 protein (RNP)
How it was run: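 Primary human hepatocytes were lipofected (RNAiMAX) with RNP of Spy Cas9 (10 nM) plus pre-annealed crRNA (10 nM) and trRNA (10 nM) and harvested 24, 48 or 72 h later. Target-site amplicons were sequenced on Illumina MiSeq and aligned to hg38; percent editing = reads with indels or substitutions over total reads.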

TTR [4] = experiment: TTR editing in primary human hepatocytes transfected with Spy Cas9 mRNA and dgRNAs (Table 9); type: cell-based; settings: dgRNA co-transfected with Spy Cas9 mRNA (SEQ ID NO:2)
How it was run: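 PHH sequentially lipofected with Spy Cas9 mRNA (100 ng), then crRNA plus tracrRNA (25 nM each) dual-guide lipoplex. Cells harvested 24, 48 or 72 h post-transfection; TTR target amplicons sequenced on Illumina MiSeq, editing given as percent reads with indels or substitutions over total reads.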

off-target genomic sites = experiment: Off-target oligo insertion based assay in HEK293_Cas9 cells, dgRNAs and sgRNAs (Tables 23, 24); type: cell-based, human; settings: Table 23; TTR dgRNAs in HekCas9 cells, oligo insertion based assay
Method: An oligo insertion based assay (See, e.g., Tsai et al., Nature Biotechnology 33, 187-197; 2015) was used to determine potential off-target genomic sites cleaved by Cas9 targeting TTR. Forty-five dgRNAs from Table 1 (and two control guides with known off-target profiles) were screened in the HEK293 Cas9 cells. The human embryonic kidney adenocarcinoma cell line HEK293 constitutively expressing Spy Cas9 (“HEK293_Cas9”) was cultured in DMEM media supplemented with 10% fetal bovine serum and 500 μg/ml G418. Cells were plated at a density of 30,000 cells/well in a 96-well plate 24 hours prior to transfection. Cells were transfected with Lipofectamine RNAiMAX (ThermoFisher, Cat. 13778150) per the manufacturer's protocol. Cells were transfected with a lipoplex containing individual crRNA (15 nM), trRNA (15 nM), and donor oligo with (10 nM) Lipofectamine RNAiMAX (0.3 μL/well) and OptiMem. Cells were lysed 24 hours post transfection and genomic DNA was extracting using Zymo's Quick gDNA 96 Extraction kit (catalog #D3012) following the manufacturer's recommended protocol. The gDNA was quantified using the Qubit High Sensitivity dsDNA kit (Life Technologies). Libraries were prepared per the previously described method in Tsai et al, 2015 with minor modifications. Sequencing was performed on Illumina's MiSeq and HiSeq 2500. The assay identified potential off-target sites for some of the crRNAs which are plotted in FIG. 2.
Additionally, a subset of the guides was assessed for off-target potential as modified sgRNAs in the Hek_Cas9 cells via the oligo based insertion method described above. The off-target results were plotted in FIG. 4.

TTR [5] = experiment: TTR editing in primary cyno hepatocytes electroporated with Spy Cas9 protein and sgRNAs (Tables 14, 15); type: cell-based, cynomolgus monkey; settings: Table 15; primary cyno hepatocytes electroporated with Spy Cas9 protein (RNP) and cyno specific sgRNAs
Method: (§1) Primary liver hepatocytes. Primary human liver hepatocytes (PHH) and primary cynomolgus liver hepatocytes (PCH) (Gibco) were cultured per the manufacturer's protocol (Invitrogen, protocol 11.28.2012). In brief, the cells were thawed and resuspended in hepatocyte thawing medium with supplements (Gibco, Cat. CM7000) followed by centrifugation at 100 g for 10 minutes for human and 80 g for 4 minutes for cyno. The supernatant was discarded and the pelleted cells resuspended in hepatocyte plating medium plus supplement pack (Invitrogen, Cat. A1217601 and CM3000). Cells were counted and plated on Bio-coat collagen I coated 96-well plates (ThermoFisher, Cat. 877272) at a density of 33,000 cells/well for human or 60,000 cells/well for cyno (or 65,000 cells/well when assaying effects on TTR protein, described further below). Plated cells were allowed to settle and adhere for 6 or 24 hours in a tissue culture incubator at 37° C. and 5% CO2 atmosphere. After incubation cells were checked for monolayer formation and media was replaced with hepatocyte culture medium with serum-free supplement pack (Invitrogen, Cat. A1217601 and CM4000).
[…] formation was performed prior to electroporation or transfection of Spy Cas9 protein loaded with guide RNAs (RNPs) onto cells. For dual guide (dgRNAs), individual crRNA and trRNA was pre-annealed by mixing equivalent amounts of reagent and incubating at 95° C. for 2 min and cooling to room temperature. Single guide (sgRNAs) were boiled at 95° C. for 2 min and cooling to room temperature. The boiled dgRNA or sgRNA was incubated with Spy Cas9 protein in Optimem for 10 minutes at room temperature to form a ribonucleoprotein (RNP) complex.
For RNP electroporation into primary human and cyno hepatocytes, the cells are thawed and resuspended in Lonza electroporation Primary Cell P3 buffer at a concentration of 2500 cells per μL for human hepatocytes and 3500 cells per μL for cyno hepatocytes. A volume of 20 μL of resuspended cells and 5 μL of RNP are mixed together per guide. 20 μL of the mixture is placed into a Lonza electroporation plate. The cells were electroporated using the Lonza nucleofector with the preset protocol EX-147. Post electroporation, the cells are transferred into a Biocoat plate containing pre-warmed maintenance media and placed in a tissue culture incubator at 37° C. and 5% CO2.
Transfected cells were harvested post-transfection at 24, 48, or 72 hours. The genomic DNA was extracted from each well of a 96-well plate using 50 μL/well BuccalAmp DNA Extraction solution (Epicentre, Cat. QE09050) per manufacturer's protocol. All DNA samples were subjected to PCR and subsequent NGS analyses, as described herein.
(§2) To quantitatively determine the efficiency of editing at the target location in the genome, sequencing was utilized to identify the presence of insertions and deletions introduced by gene editing.
(§3) Primers were designed around the target site within the gene of interest (e.g. TTR), and the genomic area of interest was amplified.
(§4) Additional PCR was performed per the manufacturer's protocols (Illumina) to add chemistry for sequencing. The amplicons were sequenced on an Illumina MiSeq instrument. The reads were aligned to a reference genome (e.g., the human reference genome (hg38), the cynomologus reference genome (mf5), the rat reference genome (rn6), or the mouse reference genome (mm10)) after eliminating those having low quality scores. The resulting files containing the reads were mapped to the reference genome (BAM files), where reads that overlapped the target region of interest were selected and the number of wild type reads versus the number of reads which contain an insertion, substitution, or deletion was calculated.
The editing percentage (e.g., the “editing efficiency” or “percent editing” or “indel frequency”) is defined as the total number of sequence reads with insertions/deletions (“indels”) or substitutions over the total number of sequence reads, including wild type. […]

TTR [6] = experiment: TTR editing in primary cyno hepatocytes treated with LNP formulated Spy Cas9 mRNA (SEQ ID NO: 2) and sgRNAs (Tables 17, 18); type: cell-based, cynomolgus monkey; settings: LNP formulated Spy Cas9 mRNA (SEQ ID NO: 2) and cyno matched sgRNAs, 72 hours post treatment
Method: as §1
In general, the lipid nanoparticle components were dissolved in 100% ethanol with the lipid component of various molar ratios. The RNA cargos were dissolved in 25 mM citrate, 100 mM NaCl, pH 5.0, resulting in a concentration of RNA cargo of approximately 0.45 mg/mL. The LNPs were formulated with a lipid amine to RNA phosphate (N:P) molar ratio of about 4.5 or about 6, with the ratio of mRNA to gRNA at 1:1 by weight.
The LNPs were formed by microfluidic mixing of the lipid and RNA solutions using a Precision Nanosystems NanoAssemblr™ Benchtop Instrument, according to the manufacturer's protocol. A 2:1 ratio of aqueous to organic solvent was maintained during mixing using differential flow rates. After mixing, the LNPs were collected, diluted in water (approximately 1:1 v/v), held for 1 hour at room temperature, and further diluted with water (approximately 1:1 v/v) before final buffer exchange. The final buffer exchange into 50 mM Tris, 45 mM NaCl, 5% (w/v) sucrose, pH 7.5 (TSS) was completed with PD-10 desalting columns (GE). If required, formulations were concentrated by centrifugation with Amicon 100 kDa centrifugal filters (Millipore). The resulting mixture was then filtered using a 0.2 μm sterile filter. The final LNP was stored at −80° C. until further use.
as §2, §3, §4
The editing percentage (e.g., the “editing efficiency” or “percent editing” or “indel frequency”) is defined as the total number of sequence reads with insertions/deletions (“indels”) or substitutions over the total number of sequence reads, including wild type.
Lipid nanoparticle formulations of modified sgRNAs targeting human TTR and the cyno matched sgRNA sequences were tested on primary human hepatocytes and primary cyno hepatocytes in a dose response curve. Primary human and cyno hepatocytes were plated as described in Example 1. […]

Row | Molecule | Avg % Deletion (TTR [1]) [%] | Avg % Edit (TTR [1]) [%] | Avg % Insert (TTR [1]) [%] | Avg % Deletion (TTR [2]) [%] | Avg % Edit (TTR [2]) [%] | Avg % Insert (TTR [2]) [%] | Avg % Deletion (TTR [3]) [%] | Avg % Edit (TTR [3]) [%] | Avg % Insert (TTR [3]) [%] | Avg % Deletion (TTR [4]) [%] | Avg % Edit (TTR [4]) [%] | Avg % Insert (TTR [4]) [%] | # Sites (off-target integration sites detected) (off-target genomic sites) | Avg % Deletion (TTR [5]) [%] | Avg % Edit (TTR [5]) [%] | Avg % Insert (TTR [5]) [%] | 12.5 ng mRNA, 3.9 nM sgRNA % Edit (TTR [6]) [%]
1 | GGCCGUGCAUGUGUUCAGAA (tested as dual guide RNA, chemistry not given here) [CR005304] | 54.75 | 62.82 | 8.07 | 61.63 | 67.00 | 5.53 | 45.13 | 49.45 | 4.32 | 44.47 | 45.27 | 0.83 | 0 |  |  |  | 
2 | UCACAGAAACACUCACCGUA (tested as dual guide RNA, chemistry not given here) [CR005300] | 11.15 | 64.34 | 53.20 | 4.10 | 57.47 | 53.47 | 3.61 | 57.23 | 53.62 | 3.97 | 31.53 | 27.60 | 0 |  |  |  | 
3 | B1 |  |  |  |  |  |  |  |  |  |  |  |  |  | 1.77 | 90.80 | 89.13 | 61.87
4 | B2 |  |  |  |  |  |  |  |  |  |  |  |  |  | 4.17 | 45.63 | 41.57 | 
5 | B3 |  |  |  |  |  |  |  |  |  |  |  |  |  | 4.60 | 71.17 | 67.03 | 
6 | B4 |  |  |  |  |  |  |  |  |  |  |  |  |  | 2.00 | 62.77 | 60.87 | 
7 | B5 |  |  |  |  |  |  |  |  |  |  |  |  |  | 49.73 | 93.03 | 43.60 | 74.47
